Measured values reported in patent US7718680B2 (priority 2004, dated 2010).
Like-named read-outs stand apart in the source and are kept apart here.

Legend:
[1] = molecular target: T1, Lethal Factor (LF) protease of anthrax toxin (Bacillus anthracis, UniProt P15917); test: biochemical
[2] = molecular target: T1, Lethal Factor (LF) protease of anthrax toxin; test: biochemical; remark: listed apart in the source
macrophages = type: cell-based

T1 sequence (P15917 34-809 limits assumed): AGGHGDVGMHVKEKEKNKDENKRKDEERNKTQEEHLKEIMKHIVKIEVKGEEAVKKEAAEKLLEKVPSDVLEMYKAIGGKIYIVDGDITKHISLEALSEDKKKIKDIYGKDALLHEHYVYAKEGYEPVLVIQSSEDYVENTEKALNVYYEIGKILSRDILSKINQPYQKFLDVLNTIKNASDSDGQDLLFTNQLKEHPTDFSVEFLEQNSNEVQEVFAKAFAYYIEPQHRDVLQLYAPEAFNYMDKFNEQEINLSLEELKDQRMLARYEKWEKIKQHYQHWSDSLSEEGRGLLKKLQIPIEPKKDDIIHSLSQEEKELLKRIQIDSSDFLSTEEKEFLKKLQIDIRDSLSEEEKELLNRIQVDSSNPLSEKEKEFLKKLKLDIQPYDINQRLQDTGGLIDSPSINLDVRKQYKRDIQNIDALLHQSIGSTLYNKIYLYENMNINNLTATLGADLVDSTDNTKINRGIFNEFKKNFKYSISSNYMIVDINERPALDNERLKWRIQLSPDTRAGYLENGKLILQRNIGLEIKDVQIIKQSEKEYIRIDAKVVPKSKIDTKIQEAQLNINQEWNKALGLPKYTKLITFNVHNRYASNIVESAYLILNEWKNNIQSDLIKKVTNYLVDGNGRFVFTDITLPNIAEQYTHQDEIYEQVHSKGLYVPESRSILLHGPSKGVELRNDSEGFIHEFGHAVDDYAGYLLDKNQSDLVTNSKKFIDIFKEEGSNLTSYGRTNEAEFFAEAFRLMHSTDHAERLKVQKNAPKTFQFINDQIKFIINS

O=C(O)CN1C(=O)/C(=C/c2ccco2)SC1=S [BI-9B9b]
inhibition at 140 µM ([1]; read-out: LF inhibition): 50%
pIC50 Obs [2]: 3.85
IC50 ([2]; read-out: IC50): 140 µM
inhibition at 140 µM ([2]; read-out: LF inhibition): 50%

O=C(O)CN1C(=O)/C(=C/c2ccc(-c3ccc(Cl)cc3)o2)SC1=S [BI-11A9]
pIC50 Obs [2]: 6.05
IC50 ([2]; read-out: IC50): 0.9 µM

O=C(O)CN1C(=O)/C(=C/c2ccc(-c3ccc(Br)cc3)o2)SC1=S [BI-11A10]
pIC50 Obs [2]: 6.07
IC50 ([2]; read-out: IC50): 0.85 µM

O=C(O)CN1C(=O)/C(=C/c2ccc(-c3ccc(Cl)cc3[N+](=O)[O-])o2)SC1=S [BI-11A11]
pIC50 Obs [2]: 6.30
IC50 ([2]; read-out: IC50): 0.5 µM

O=C(O)CN1C(=O)/C(=C/c2ccc(-c3ccc(Cl)c(Cl)c3)o2)SC1=S [BI-11B2]
pIC50 Obs [2]: 6.58
IC50 ([2]; read-out: IC50): 0.265 µM
potency relative to GM6001 (macrophages): 100 fold

O=C(O)CN1C(=O)/C(=C/c2ccc(-c3cc(C(F)(F)F)ccc3Cl)o2)SC1=S [BI-11B3]
LF activity / cleavage of fluorinated peptide seen by 19F NMR [1]: potent LF inhibition
Ki [2]: 0.032 µM
pIC50 Obs [2]: 6.71
IC50 ([2]; read-out: IC50): 0.195 µM
potency relative to GM6001 (macrophages): 100 fold

O=C(O)CN1C(=O)/C(=C/c2ccc(-c3ccccc3)s2)SC1=S [BI-11B10]
pIC50 Obs [2]: 6.13
IC50 ([2]; read-out: IC50): 0.74 µM

CN1C(=N)NC(=O)/C1=C\c1ccc(-c2cc(C(F)(F)F)ccc2Cl)o1 [BI-11B11]
pIC50 Obs [2]: 4

O=C1NC(=S)NC(=O)C1=Cc1ccc(-c2ccc(Cl)cc2)o1 [BI-11B12]
pIC50 Obs [2]: 5.36
IC50 ([2]; read-out: IC50): 4.4 µM

COc1ccc(-c2ccc(C=C3C(=O)NC(=S)NC3=O)o2)cc1Cl [BI-11C1]
pIC50 Obs [2]: 5.52
IC50 ([2]; read-out: IC50): 3 µM

O=C1NC(=S)NC(=O)C1=Cc1ccc(-c2cc(C(F)(F)F)ccc2Cl)o1 [BI-11C2]
pIC50 Obs [2]: 5.89
IC50 ([2]; read-out: IC50): 1.3 µM

O=C1NC(=S)NC(=O)C1=Cc1ccc(-c2ccc(Cl)c(Cl)c2)o1 [BI-11C3]
pIC50 Obs [2]: 5.68
IC50 ([2]; read-out: IC50): 2.1 µM

O=C1NC(=S)NC(=O)C1=Cc1ccc(-c2ccccc2)s1 [BI-11C4]
pIC50 Obs [2]: 5.92
IC50 ([2]; read-out: IC50): 1.2 µM

CN1C(=N)NC(=O)/C1=C\c1ccc(-c2ccc(Cl)cc2)o1 [BI-11C5]
pIC50 Obs [2]: 3.70
IC50 ([2]; read-out: IC50): 200 µM

CN1C(NC(=O)O)=NC(=O)/C1=C\c1ccc(-c2ccc(Cl)cc2)o1 [BI-11C11]
IC50 [2]: > 100 µM
pIC50 Obs [2]: >4

O=C(O)CN1C(=O)/C(=C/c2ccc(-c3ccccc3)o2)SC1=S [BI-11C12]
pIC50 Obs [2]: 4.78
IC50 ([2]; read-out: IC50): 16.6 µM

O=C(O)CN1C(=O)/C(=C/c2cccs2)SC1=S [BI-11D1]
pIC50 Obs [2]: 4.10
IC50 ([2]; read-out: IC50): 79.4 µM

O=C(O)CN1C(=O)/C(=C/c2nccs2)SC1=S [BI-11D2]
pIC50 Obs [2]: 4.14
IC50 ([2]; read-out: IC50): 72.4 µM

O=C(O)CN1C(=O)/C(=C/c2ccc(-c3cccs3)s2)SC1=S [BI-11D3]
pIC50 Obs [2]: 5.64

O=C(O)CN1C(=O)/C(=C/c2ncc(-c3ccc(Cl)cc3)s2)SC1=S [BI-11D5]
pIC50 Obs [2]: 5.00
IC50 ([2]; read-out: IC50): 10 µM

COc1ccc(-c2cnc(/C=C3\SC(=S)N(CC(=O)O)C3=O)s2)cc1OC [BI-11D6]
pIC50 Obs [2]: 5.30
IC50 ([2]; read-out: IC50): 5 µM

O=C(O)CN1C(=O)S/C(=C\c2ccc(-c3ccc(Cl)c(Cl)c3)o2)C1=O [BI-11D8]
pIC50 Obs [2]: 5.25
IC50 ([2]; read-out: IC50): 5.6 µM

O=C(O)CN1C(=O)/C(=C/c2ccc(-c3cc(C(F)(F)F)ccc3Cl)o2)SC1=S [BI-11D9]
IC50 [2]: 5.9 µM

O=C(O)CN1C(=O)/C(=C/c2ccc(-c3ccc(Cl)cc3)s2)SC1=S [BI-11D10]
pIC50 Obs [2]: 5.49
IC50 ([2]; read-out: IC50): 3.2 µM

O=C(O)CN1C(=O)S/C(=C\c2ccc(/C=C3\SC(=S)N(CC(=O)O)C3=O)s2)C1=O [BI-11E2]
IC50 [2]: 1.58 µM

O=C(O)CN1C(=O)/C(=C/c2ncc(-c3ccc(F)cc3)s2)SC1=S [BI-11E3]
pIC50 Obs [2]: 4.65
IC50 ([2]; read-out: IC50): 22.4 µM

O=C(O)CN1C(=O)/C(=C/c2ncc(-c3ccc(Br)cc3)s2)SC1=S [BI-11E4]
pIC50 Obs [2]: 5.36
IC50 ([2]; read-out: IC50): 4.4 µM

O=C(O)CCN1C(=O)/C(=C/c2ccc(-c3ccc(Cl)cc3)o2)SC1=S [BI-MFM3]
LF activity / cleavage of fluorinated peptide seen by 19F NMR [1]: Only the ^19F NMR signal relative to uncleaved peptide appears
inhibitory activity relative to GM6001 [1]: about twice as strong as GM6001
Ki [2]: 0.8 ± 0.3 µM
effect on the Vmax [2]: no effect
pIC50 Obs [2]: 5.77
type of inhibition [2]: competitive
IC50 ([2]; read-out: IC50): 1.7 µM
inhibition at 10 µM ([2]; read-out: LF inhibition): > 70%

O=C1/C(=C/c2ccc(-c3ccc(Cl)cc3)o2)SC(=S)N1Cc1ccco1 [Compound 2]
IC50 ([2]; read-out: IC50): 150 µM

C=CCN1C(=O)/C(=C/c2ccc(-c3ccc(F)cc3)o2)SC1=S [Compound 3]
IC50 ([2]; read-out: IC50): 50 µM

O=C1/C(=C/c2ccc(-c3ccccc3[N+](=O)[O-])o2)SC(=S)N1CCc1ccccc1 [Compound 6]
IC50 ([2]; read-out: IC50): 31.9 µM

O=C(O)c1ccc(-c2ccc(/C=C3\SC(=S)N(Cc4cccnc4)C3=O)o2)cc1Cl [Compound 11]
IC50 ([2]; read-out: IC50): 9.9 µM

NS(=O)(=O)c1ccc(-c2ccc(/C=C3\SC(=S)N(CC(=O)O)C3=O)o2)cc1 [Compound 12]
IC50 ([2]; read-out: IC50): 9.1 µM

O=C1NC(=S)S/C1=C\c1ccc(-c2ccc(Cl)c(Cl)c2)o1 [Compound 13]
IC50 ([2]; read-out: IC50): 7.4 µM
inhibition at 10 µM ([2]; read-out: LF inhibition): > 70%

O=C1NC(=S)S/C1=C\c1ccc(-c2ccc(Br)c(Cl)c2)o1 [Compound 14]
IC50 ([2]; read-out: IC50): 7 µM
inhibition at 10 µM ([2]; read-out: LF inhibition): > 70%

O=C(O)CN1C(=O)/C(=C/c2ccc(-c3ccc(I)cc3)o2)SC1=S [Compound 16]
IC50 ([2]; read-out: IC50): 5.5 µM
inhibition at 10 µM ([2]; read-out: LF inhibition): > 70%

C=CCN1C(=O)/C(=C/c2ccc(-c3ccc(C(=O)O)c(Cl)c3)o2)SC1=S [Compound 20]
IC50 ([2]; read-out: IC50): 2.7 µM

O=C(O)CCCN1C(=O)/C(=C/c2ccc(-c3ccc(Br)cc3)o2)SC1=S [Compound 21]
IC50 ([2]; read-out: IC50): 2.3 µM

CNC(=O)[C@H](Cc1c[nH]c2ccccc12)NC(=O)[C@@H](CC(=O)NO)CC(C)C [GM6001, reference compound]
LF activity / cleavage of fluorinated peptide seen by 19F NMR [1]: reduced by approximately half
